Measured values reported in the NIST ThermoML archive (doi:10.1016/j.jct.2009.03.014).
“And” between values parts separate entries of the source, which are not always exact repeats. Identical values can stand only once.

How the values were obtained:
[1] = molar enthalpy of vaporization or sublimation; conditions: 298.15 K, Crystal
[2] = Crystal, Calculated from knudsen effusion weight loss

O=[N+]([O-])c1c(Cl)cc(Cl)cc1Cl [1,3,5-trichloro-2-nitrobenzene]
Conditions	molar enthalpy, Drop-Microcalorimetry [kcal/mol]	vapor or sublimation pressure, 287.13 K	vapor or sublimation pressure, 289.15 K	vapor or sublimation pressure, 291.14 K	vapor or sublimation pressure, 293.13 K	vapor or sublimation pressure, 295.15 K	vapor or sublimation pressure, 297.15 K	vapor or sublimation pressure, 299.14 K	vapor or sublimation pressure, 301.13 K	vapor or sublimation pressure, 303.14 K
[1]	20.1	–	–	–	–	–	–	–	–	–
[2]	–	0.000143 kPa and 0.000137 kPa and 0.000136 kPa	0.000183 kPa and 0.000176 kPa and 0.000174 kPa	0.000231 kPa and 0.000224 kPa and 0.000217 kPa	0.000295 kPa and 0.000293 kPa and 0.000301 kPa	0.000387 kPa and 0.000371 kPa and 0.000369 kPa	0.000487 kPa and 0.000435 kPa and 0.000445 kPa	0.000651 kPa and 0.000582 kPa and 0.000577 kPa	0.0008 kPa and 0.000723 kPa and 0.000725 kPa	0.000992 kPa and 0.000924 kPa and 0.000927 kPa

O=[N+]([O-])c1c(Cl)c(Cl)cc(Cl)c1Cl [2,3,5,6-tetrachloronitrobenzene]
Conditions	molar enthalpy [kcal/mol]
[1], Drop Microcalorimetry	21.8

O=[N+]([O-])c1c(Cl)c(Cl)c(Cl)c(Cl)c1Cl [pentachloronitrobenzene]
Conditions	molar enthalpy [kcal/mol]	vapor or sublimation pressure
[1], Drop Microcalorimetry	23	–
[2], 317.11 K	–	0.000102 kPa and 0.000101 kPa
[2], 319.18 K	–	0.000129 kPa and 0.000127 kPa and 0.000124 kPa
[2], 321.2 K	–	0.00015 kPa and 0.000155 kPa and 0.000154 kPa
[2], 323.11 K	–	0.000197 kPa and 0.000196 kPa and 0.000199 kPa
[2], 325.18 K	–	0.000246 kPa and 0.000245 kPa and 0.000241 kPa
[2], 327.2 K	–	0.000289 kPa and 0.000296 kPa and 0.000292 kPa
[2], 329.11 K	–	0.000372 kPa and 0.000367 kPa and 0.000366 kPa
[2], 331.17 K	–	0.000462 kPa and 0.000453 kPa and 0.000447 kPa
[2], 333.2 K	–	0.000531 kPa and 0.000549 kPa and 0.00054 kPa
[2], 335.11 K	–	0.000692 kPa and 0.000673 kPa and 0.000671 kPa
[2], 337.18 K	–	0.000844 kPa and 0.000833 kPa and 0.000818 kPa
[2], 339.2 K	–	0.000971 kPa and 0.001009 kPa and 0.000993 kPa
